ChEMBL document CHEMBL3085722, “Stereochemical assignment of the fungal metabolites pestalotiopsones D and E through enantiopure synthesis” (J Nat Prod, 2013)
In brackets after ≈: the same amount, converted by molar mass.

What was measured:
Type in all cases: functional, organism-based
[1] = test system: Escherichia coli; test: Antibacterial activity against Escherichia coli after 18 hrs by turbidity assay
[2] = test system: Pseudomonas aeruginosa; test: Antibacterial activity against Pseudomonas aeruginosa after 18 hrs by turbidity assay
[3] = test system: Staphylococcus epidermidis; test: Antibacterial activity against Staphylococcus epidermidis after 18 hrs by turbidity assay
[4] = test system: Mycolicibacterium smegmatis; test: Antibacterial activity against Mycobacterium smegmatis after 18 hrs by turbidity assay

| SMILES | IC50 [1] | MIC [1] | IC50 [2] | MIC [2] | IC50 [3] | MIC [3] | IC50 [4] | MIC [4] |
| --- | --- | --- | --- | --- | --- | --- | --- | --- |
| CCOC(=O)Cc1cc(O)cc2oc(CCCCC[C@H](C)O)cc(=O)c12 | > 500 µg/mL | > 500 µg/mL | 440 µg/mL (≈ 1210 µM) | > 500 µg/mL | > 500 µg/mL | > 500 µg/mL | 484 µg/mL (≈ 1340 µM) | > 500 µg/mL |
| COC(=O)Cc1cc(OC)cc2oc(CCCCC[C@@H](C)OC(C)=O)cc(=O)c12 |  | > 500 µg/mL |  | > 500 µg/mL |  | > 500 µg/mL |  | > 500 µg/mL |
| CCOC(=O)Cc1cc(O)cc2oc(CCCCC[C@@H](C)O)cc(=O)c12 |  | > 500 µg/mL |  | > 500 µg/mL |  | > 500 µg/mL |  | > 500 µg/mL |
| COC(=O)Cc1cc(OC)cc2oc(CCCCC[C@H](C)OC(C)=O)cc(=O)c12 | > 500 µg/mL | > 500 µg/mL | 465 µg/mL (≈ 1150 µM) | > 500 µg/mL | > 500 µg/mL | > 500 µg/mL | > 500 µg/mL | > 500 µg/mL |
| NC[C@H]1O[C@H](O[C@H]2[C@H](O)[C@@H](O[C@H]3O[C@H](CO)[C@@H](O)[C@H](N)[C@H]3O)[C@H](N)C[C@@H]2N)[C@H](O)[C@@H](O)[C@@H]1O [KANAMYCIN] | < 1 µg/mL |  | 209 µg/mL (≈ 431 µM) |  | 90 µg/mL (≈ 186 µM) |  | < 1 µg/mL |  |
| COC(=O)Cc1cc(OC)cc2c1C(=O)CC(CCCCC[C@@H](C)OC(C)=O)O2 (mixture of isomers) |  | > 500 µg/mL |  | > 500 µg/mL |  | > 500 µg/mL |  | > 500 µg/mL |

Now from value to compound:

| IC50 [1] | MIC [1] | IC50 [2] | MIC [2] | IC50 [3] | MIC [3] | IC50 [4] | MIC [4] | SMILES |
| --- | --- | --- | --- | --- | --- | --- | --- | --- |
| > 500 µg/mL | > 500 µg/mL | 445 µg/mL | > 500 µg/mL | > 500 µg/mL | > 500 µg/mL | 492 µg/mL | > 500 µg/mL | COC(=O)Cc1cc(OC)cc2c1C(=O)CC(CCCCC[C@H](C)OC(C)=O)O2 (mixture of isomers) |
|  | > 500 µg/mL |  | > 500 µg/mL |  | > 500 µg/mL |  | > 500 µg/mL | COC(=O)Cc1cc(O)cc2oc(CCCCC[C@@H](C)O)cc(=O)c12 |
| > 500 µg/mL | > 500 µg/mL | > 500 µg/mL | > 500 µg/mL | > 500 µg/mL | > 500 µg/mL | > 500 µg/mL | > 500 µg/mL | COC(=O)Cc1cc(O)cc2oc(CCCCC[C@H](C)O)cc(=O)c12 |
